Patent US20240262842A1, “SMALL MOLECULE INHIBITORS OF KRAS G12C MUTANT” (Merck Sharp & Dohme LLC, priority 2021, published 2024)
Like-named read-outs stand apart in the source and are kept apart here.

Biological target: biotinylated KRAS G12C protein (GMP-PNP loaded) and GST-tagged Ras binding domain of c-RAF (Homo sapiens, UniProt P01116, C118S/C51S/C80L/G12C)
Assay: RAS:RAF-RBD binding assay (TR-FRET)
Conditions: Table 4
[1] = 30-minute incubation of compound with KRAS G12C before RAF-RBD, read-out: IC50

Chain of biotinylated KRAS G12C protein (GMP-PNP loaded) and GST-tagged Ras binding domain of c-RAF (P01116 with tags, fused parts or gaps isoform P01116-2 G12C/C51S/C80L/C118S): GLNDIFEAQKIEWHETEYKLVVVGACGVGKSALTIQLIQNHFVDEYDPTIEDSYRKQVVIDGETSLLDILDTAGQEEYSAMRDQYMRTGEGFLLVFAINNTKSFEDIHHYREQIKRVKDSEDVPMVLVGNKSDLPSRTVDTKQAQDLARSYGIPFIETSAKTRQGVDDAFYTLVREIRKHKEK

Row | SMILES | IC50 [1] [nM] | IC50 (IC50, 30-minute incubation of compound with KRAS G12C before RAF-RBD) [nM]
1 | Cc1nc2c3c(c(C(F)(F)F)cc2n1C)-c1cccn2c(C(=O)c4cc(F)c(NC(=O)/C=C/CN5CC6(CCCOC6)C5)c(F)c4)cc(c12)CCO3 [Example 253, mono((E)-2-(4-(4-(6-oxa-2-azaspiro[3.5]nonan-2-ium-2-yl)but-2-enamido)-3,5-difluorobenzoyl)-9,10-dimethyl-7-(trifluorometh-yl)-13,14-dihydro-9H-imidazo[4″,5″:5′,6′]benzo-[1′,2′:2,3]oxocino[4,5,6-hi]indolizin-11-ium) mono-(2,2,2-trifluoroacetate)] | 24.8 | –
2 | Cc1nc2c3c(c(C(F)(F)F)cc2n1C)-c1cccn2c(C(=O)c4cc(F)c(NC(=O)C=CCN5CCC5CC(=O)N(C)C)c(F)c4)cc(c12)CCO3 [Example 254, mono(2-(4-((E)-4-((2S)-2-(2-(dimethylamino)-2-oxoethyl)azetidin-1-ium-1-yl)but-2-enamido)-3,5-difluorobenzoyl)-9,10-dimethyl-7-(trifluorometh-yl)-13,14-dihydro-9H-imidazo[4″,5″:5′,6′]benzo-[1′,2′:2,3]oxocino[4,5,6-hi]indolizin-11-ium) mono(2,2,2-trifluoro-acetate)] | 20.9 | –
3 | Cc1nc2c3c(c(C(F)(F)F)cc2n1C)-c1cccn2c(C(=O)c4cc(F)c(NC(=O)C=CCN5CCCC5C5(O)CC5)c(F)c4)cc(c12)CCO3 (stereo not shown) [Example 255, mono(2-(3,5-difluoro-4-((E)-4-((28)-2-(1-hydroxy-cyclopropyl)pyrrolidin-1-ium-1-yl)but-2-enamido)-benzoyl)-9,10-dimethyl-7-(trifluoromethyl)-13,14-dihydro-9H-imidazo-[4″,5″:5′,6′]benzo[1′,2′: 2,3]oxocino[4,5,6-hi]-indolizin-11-ium) mono-(2,2,2-trifluoroacetate)] | 11.7 | –
4 | Cc1nc2c3c(c(C(F)(F)F)cc2n1C)-c1cccn2c(C(=O)c4cc(F)c(NC(=O)/C=C/CN5CCC[C@H]5CO)c(F)c4)cc(c12)CCO3 [Example 256, mono(2-(3,5~difluoro-4-((E)-4-((2S)-2-(hydroxy-methyl)pyrrolidin-1-ium-1-yl)but-2-enamido)ben-zoyl)-9,10-dimethyl-7-(trifluoromethyl)-13,14-dihydro-9H-imidazo-[4,5″:5′,6′]benzo[1′,2′: 2,3]oxocino[4,5,6-hi]-indolizin-11-ium) mono-(2,2,2-trifluoroacetate)] | 4.7 | –
5 | Cc1nc2c3c(c(C(F)(F)F)cc2n1C)-c1cccn2c(C(=O)c4cc(F)c(NC(=O)C=CCN5CC6CC5CO6)c(F)c4)cc(c12)CCO3 [Example 257, mono(2-(4-((E)-4-((1S,4S)-2-oxa-5-aza-bicyclo-[2.2.1]heptan-5-ium-5-yl)but-2-enamido)-3,5-difluorobenzoyl)-9,10-dimethyl-7-(trifluorometh-yl)-13,14-dihydro-9H-imidazo[4″,5″:5′,6′]benzo-[1′,2′:2,3]oxocino[4,5,6-hi]indolizin-11-ium) mono(2,2,2-trifluoro-acetate)] | 9.69 | –
6 | Cc1nc2c3c(c(C(F)(F)F)cc2n1C)-c1cccn2c(C(=O)c4cc(F)c(NC(=O)/C=C/[C@@H]5C[C@@H](F)CN5)c(F)c4)cc(c12)CCO3 [Example 260, (2S,4R)-2-((E)-3-((4-(9,10-dimethyl-7-(tri-fluoromethyl)-13,14-dihydro-9H-imidazo-[4″,5″:5′,6′]benzo[1′,2′: 2,3]oxocino[4,5,6-hi]-indolizine-2-carbonyl)-2,6-difluorophenyl)-amino)-3-oxoprop-1-en-1-yl)-4-fluoropyrrolidin-1-ium 2,2,2-trifluoro-acetate] | 11.7 | –
7 | CO[C@H]1CC[C@H](NC/C=C/C(=O)Nc2ccc(C(=O)c3cn4c5c(cccc35)-c3c(C(F)(F)F)cc5c(nc(C)n5C)c3OCC4)cc2)CC1 [Example 263, mono(2-(4-((E)-4-(((1r, 4r)-4-methoxycyclohexyl)-ammonio)but-2-enamido)-benzoyl)-8,9-dimethyl-6-(trifluoromethyl)-12,13-dihydro-8H-imidazo-[4″,5″:3′,4′]benzo[1′,2′: 7,8][1,4]oxazocino[6,5,4-hi]indol-10-ium) mono-(2,2,2-trifluoroacetate)] | – | 9.25
8 | Cc1nc2c3c(c(C(F)(F)F)cc2n1C)-c1cccn2c(C(=O)c4cc(F)c(NC(=O)/C=C/CN[C@@H]5CCCC[C@@H]5O)c(F)c4)cc(c12)CCO3 [Example 264] | 7.34 | –
9 | Cc1nc2c3c(c(C(F)(F)F)cc2n1C)-c1cccn2c(C(=O)c4cc(F)c(NC(=O)/C=C/CN[C@H]5CCCC[C@H]5O)c(F)c4)cc(c12)CCO3 [Example 265] | 12.3 | –
10 | CO[C@@H]1CCCC[C@@H]1NC/C=C/C(=O)Nc1c(F)cc(C(=O)c2cc3c4c(cccn24)-c2c(C(F)(F)F)cc4c(nc(C)n4C)c2OCC3)cc1F [Example 266, (E)-N-(4-(9,10-dimethyl-7-(trifluoromethyl)-13,14-dihydro-9H-imidazo-[4″,5″:5′,6′]benzo[1′,2′: 2,3]oxocino[4,5,6-hi]-indolizine-2-carbonyl)-2,6-difluorophenyl)-4-(((1S,2R)-2-methoxy-cyclohexyl)amino)but-2-enamide] | 16.1 | –
11 | Cc1nc2c3c(c(C(F)(F)F)cc2n1C)-c1cccn2c(C(=O)c4cc(F)c(NC(=O)/C=C/CNC5(C)CCOCC5)c(F)c4)cc(c12)CCO3 [Example 267, mono((E)-2-(3,5-difluoro-4-(4-((4-methyltetrahydro-2H-pyran-4-yl)ammonio)-but-2-enamido)benzoyl)-9,10-dimethyl-7-(trifluoro-methyl)-13,14-dihydro-9H-imidazo[4″,5″:5′,6′]-benzo[1′,2′:2,3]oxocino-[4,5,6-hi]indolizin-11-ium)mono(2,2,2-trifluoro-acetate)] | 3.69 | –
12 | CO[C@H]1CCCC[C@H]1NC/C=C/C(=O)Nc1c(F)cc(C(=O)c2cc3c4c(cccn24)-c2c(C(F)(F)F)cc4c(nc(C)n4C)c2OCC3)cc1F [Example 268, (E)-N-(4-(9,10-dimethyl-7-(trifluoromethyl)-13,14-dihydro-9H-imidazo-[4″,5″:5′,6′]benzo[1′,2′: 2,3]oxocino[4,5,6-hi]-indolizine-2-carbonyl)-2,6-difluorophenyl)-4-(((1R,2S)-2-methoxy-cyclohexyl)amino)but-2-enamide] | 12.8 | –
13 | Cc1nc2c3c(c(C(F)(F)F)cc2n1C)-c1cccn2c(C(=O)c4cc(F)c(NC(=O)/C=C/CN[C@@H]5CCCC(F)(F)[C@@H]5O)c(F)c4)cc(c12)CCO3 [Example 274] | 20.4 | –
14 | Cc1nc2c3c(c(C(F)(F)F)cc2n1C)-c1cccn2c(C(=O)c4cc(F)c(NC(=O)/C=C/CN5C[C@H](O)[C@@H](F)C5)c(F)c4)cc(c12)CCO3 [Example 275, (3S,4S)-1-((E)-4-((4-(9,10-dimethyl-7-(trifluorometh-yl)-13,14-dihydro-9H-imidazo[4″,5″:5′,6′]benzo-[1′,2′:2,3]oxocino[4,5,6-hi]indolizine-2-carbonyl)-2,6-difluorophenyl)amino)-4-oxobut-2-en-1-yl)-3-fluoro-4-hydroxypyrrol-idin-1-ium 2,2,2-trifluoro-acetate] | 57.5 | –
15 | Cc1nc2c3c(c(C(F)(F)F)cc2n1C)-c1cccn2c(C(=O)c4cc(F)c(NC(=O)/C=C/CNCC5(F)CC5)c(F)c4)cc(c12)CCO3 [Example 276, (E)-4-((4-(9,10-dimethyl-7-(trifluoromethyl)-13,14-dihydro-9H-imidazo-[4″,5″:5′,6′]benzo[1′,2′: 2,3]oxocino[4,5,6-hi]-indolizine-2-carbonyl)-2,6-difluorophenyl)-amino)-N-((1-fluorocyclo-propyl)methyl)-4-oxobut-2-en-1-aminium 2,2,2-trifluoroacetate] | 8.05 | –
16 | Cc1nc2c3c(c(C(F)(F)F)cc2n1C)-c1cccn2c(C(=O)c4cc(F)c(NC(=O)/C=C/CNC5CC(F)(F)C5)c(F)c4)cc(c12)CCO3 [Example 277, (E)-N-(4-((4-(9,10-dimethyl-7-(trifluoro-methyl)-13,14-dihydro-9H-imidazo[4″,5″:5′,6′]-benzo[1′,2′:2,3]oxocino-[4,5,6-hi]indolizine-2-carbonyl)-2,6-difluoro-phenyl)amino)-4-oxobut-2-en-1-yl)-3,3-difluoro-cyclobutan-1-aminium 2,2,2-trifluoroacetate] | 26.4 | –
17 | Cc1nc2c3c(c(C(F)(F)F)cc2n1C)-c1cccn2c(C(=O)c4cc(F)c(NC(=O)/C=C/CNCC5(CO)COC5)c(F)c4)cc(c12)CCO3 [Example 279, (E)-4-((4-(9,10-dimethyl-7-(trifluoromethyl)-13,14-dihydro-9H-imidazo-[4″,5″:5′,6′]benzo[1′,2′: 2,3]oxocino[4,5,6-hi]-indolizine-2-carbonyl)-2,6-difluorophenyl)amino)-N-((3-(hydroxymethyl)oxetan-3-yl)methyl)-4-oxobut-2-en-1-aminium 2,2,2-trifluoroacetate] | 5.73 | –
18 | Cc1nc2c3c(c(C(F)(F)F)cc2n1C)-c1cccn2c(C(=O)c4cc(F)c(NC(=O)/C=C/CN5CC6(CCOCC6)C5)c(F)c4)cc(c12)CCO3 [Example 280, (E)-2-(4-((4-(9,10-dimeth-yl-7-(trifluoromethyl)-13,14-dihydro-9H-imidazo[4″,5″:5′,6′]benzo-[1′,2′:2,3]oxocino[4,5,6-hi]indolizine-2-carbonyl)-2,6-difluorophenyl)amino)-4-oxobut-2-en-1-yl)-7-oxa-2-azaspiro[3.5]nonan-2-ium 2,2,2-trifluoroacetate] | 37.7 | –
19 | Cc1nc2c3c(c(C(F)(F)F)cc2n1C)-c1cccn2c(C(=O)c4cc(F)c(NC(=O)/C=C/CNCC5(CO)CC5)c(F)c4)cc(c12)CCO3 [Example 281, (E)-4-((4-(9,10-dimethyl-7-(trifluoromethyl)-13,14-dihydro-9H-imidazo-[4″,5″:5′,6′]benzo[1′,2′: 2,3]oxocino[4,5,6-hi]-indolizine-2-carbonyl)-2,6-difluorophenyl)-amino)-N-((1-(hydroxy-methyl)cyclopropyl)meth-yl)-4-oxobut-2-en-1-aminium 2,2,2-trifluoro-acetate] | 3.8 | –
